Test results published in paper PMC12216609, “Inhibitors of eIF1A-ribosome interaction unveil uORF-dependent regulation of translation initiation and antitumor and antiviral effects” (The EMBO Journal, 2025).
“And” between values parts separate entries of the source, which are not always exact repeats. Equal values may be shown once. Read-outs that look alike come from different tables or passages of the source.

Key:
eIF1A without NTT = biological target: T1, eIF1A without NTT (Homo sapiens, UniProt P47813); assay: Fluorescence binding assay with NTT-truncated eIF1A; conditions: for fluorescence ratio, eIF1A Δ NTT: background-corrected, relative to DMSO or lowest 1Ai concentration, replicate columns
T1 construct: His-bdSUMO (cleaved yes); made in house; host or cells: E. coli (BL-21)
T1 sequence (P47813 31-144 limits assumed): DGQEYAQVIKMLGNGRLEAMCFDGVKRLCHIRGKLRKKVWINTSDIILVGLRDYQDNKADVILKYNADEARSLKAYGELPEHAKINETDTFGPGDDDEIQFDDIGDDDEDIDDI

NSP1 = NSP1 (Severe acute respiratory syndrome coronavirus 2, UniProt P0DTD1)
eIF1A without CTT = biological target: T2, eIF1A without CTT (Homo sapiens, UniProt P47813); format: binding; conditions: for fluorescence ratio, eIF1A Δ CTT: background-corrected, relative to DMSO or lowest 1Ai concentration, replicate columns
T2 construct: His-bdSUMO (cleaved yes); made in house; host or cells: E. coli (BL-21)
T2 sequence (P47813 1-114 limits assumed): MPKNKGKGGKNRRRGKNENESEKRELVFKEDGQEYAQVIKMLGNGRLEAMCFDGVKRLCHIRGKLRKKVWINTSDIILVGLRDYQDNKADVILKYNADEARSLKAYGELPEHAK

eIF1A-RPS10 interaction = biological target: T3, eIF1A-RPS10 interaction (Homo sapiens, UniProt P46783+P47813); assay: Split-Renilla luciferase eIF1A-RPS10 interaction screen, dose-response; format: biochemical
T3 construct: made in house; host or cells: E. coli BL21 (PRSFduet); unpurified lysate supernatant
T3 sequence (P47813 whole entry, one chain of several): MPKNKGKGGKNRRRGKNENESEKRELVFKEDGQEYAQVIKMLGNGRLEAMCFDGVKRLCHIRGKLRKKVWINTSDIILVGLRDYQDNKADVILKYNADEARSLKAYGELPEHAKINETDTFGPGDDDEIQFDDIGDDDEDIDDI
In short: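 eIF1A (C-terminus fused to N-terminal Renilla fragment, N-terminal tail left free) and RPS10 fused to the C-terminal Renilla fragment were expressed in BL21 E. coli (0.5 mM IPTG, overnight at 16 °C). Clarified lysates in TKE buffer served as the source of reconstituted luciferase activity; loss of signal indicated disrupted interaction.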

[1] = eIF1A Δ NTT, from the titration data, read-out: IC50 (eIF1A Δ NTT titration block)
[2] = summary table, fluorescence binding assay, read-out: IC50 concentration (µM), NTT truncation
[3] = eIF1A Δ CTT, from the titration data, read-out: IC50 (eIF1A Δ CTT titration block)
[4] = summary table, fluorescence binding assay, read-out: IC50 concentration (µM), CTT truncation
[5] = summary table, read-out: IC50 concentration (µM), IC50 screen
[6] = 1Ai conc. 0.5 uM, listed as 5662

Row | Structure (SMILES) | fluorescence ratio, eIF1A Δ NTT (eIF1A without NTT; 1Ai conc. 0.25 uM) | fluorescence ratio, eIF1A Δ NTT (eIF1A without NTT; 1Ai conc. 0.5 uM) | fluorescence ratio, eIF1A Δ NTT (eIF1A without NTT; 1Ai conc. 1 uM) | fluorescence ratio, eIF1A Δ NTT (eIF1A without NTT; 1Ai conc. 2 uM) | fluorescence ratio, eIF1A Δ NTT (eIF1A without NTT; 1Ai conc. 4 uM) | fluorescence ratio, eIF1A Δ NTT (eIF1A without NTT; 1Ai conc. 8 uM) | fluorescence ratio, eIF1A Δ NTT (eIF1A without NTT; 1Ai conc. 16 uM) | fluorescence ratio, eIF1A Δ NTT (eIF1A without NTT; 1Ai conc. 32 uM) | fluorescence ratio, eIF1A Δ NTT (eIF1A without NTT; 1Ai conc. 64 uM) | fluorescence ratio, eIF1A Δ NTT (eIF1A without NTT; 1Ai conc. 256 uM) | GFP reporter ratio nsp1/gfp, avg (NSP1) | GFP reporter ratio nsp1/gfp, rep 1 (NSP1) | ratio (nsp1/gfp) (NSP1) | fluorescence ratio, eIF1A Δ CTT (eIF1A without CTT; 1Ai conc. 0.25 uM) | fluorescence ratio, eIF1A Δ CTT (eIF1A without CTT; 1Ai conc. 1 uM) | fluorescence ratio, eIF1A Δ CTT (eIF1A without CTT; 1Ai conc. 2 uM) | fluorescence ratio, eIF1A Δ CTT (eIF1A without CTT; 1Ai conc. 4 uM) | fluorescence ratio, eIF1A Δ CTT (eIF1A without CTT; 1Ai conc. 8 uM) | fluorescence ratio, eIF1A Δ CTT (eIF1A without CTT; 1Ai conc. 16 uM) | fluorescence ratio, eIF1A Δ CTT (eIF1A without CTT; 1Ai conc. 32 uM) | other results
1 | COc1cccc(Nc2nc(-c3ccc(NC(C)=O)cc3)c(C)s2)c1 [1Ai-1869] | 1 | 0.9867 | 1.085 | 0.9841 | 0.9947 | 0.9125 | 0.8674 | 0.7984 | 0.7082 | 0.6737 | 0.4109 | 0.4212 | 0.421 and 0.401 and 0.735 | 0.6232 and 0.681 | 0.6117 and 0.6127 | 0.4666 and 0.4698 | 0.4763 and 0.4603 | 0.4568 and 0.3937 | 0.3246 and 0.3079 | 0.1925 and 0.219 | IC50 (eIF1A without NTT; [1]): 21.3 µM; IC50 (eIF1A without NTT; [2]): 21.3 µM; GFP reporter ratio nsp1/gfp, rep 2 (NSP1): 0.4006; fluorescence ratio, eIF1A Δ CTT (eIF1A without CTT; 1Ai conc. 0.5 uM): 0.6378 and 0.5984; fluorescence ratio, eIF1A Δ CTT (eIF1A without CTT; 1Ai conc. 64 uM): 0.1778 and 0.2; fluorescence ratio, eIF1A Δ CTT (eIF1A without CTT; 1Ai conc. 256 uM): 0.2104 and 0.2095; IC50 (eIF1A without CTT; [3]): 5.75 µM; IC50 (eIF1A without CTT; [4]): 5.7 µM; IC50 (eIF1A-RPS10 interaction; Appendix Table S1, read-out: IC50 from the split RL screen): 18 µM; IC50 (eIF1A-RPS10 interaction; [5]): 14 µM
2 | CN1CCN(S(=O)(=O)c2ccc(N3Cc4cc5c(cc4C4(CCCC4)C3)OCCO5)nc2)CC1 [1Ai-3564] | 1 | 1.007 | 0.9932 | 1.2 | 1.048 | 1.009 | 1.298 | 1.4 | 1.423 | 1.807 | 0.5007 | 0.5007 | 0.501 | 1.127 and 1.051 | 1.087 and 1.0877 | 1.109 and 1.056 | 1.011 and 1.035 | 0.8478 and 0.8594 | 0.8634 and 0.8337 | 0.9829 and 0.8523 | IC50 (eIF1A without NTT; [1]): 43.2 µM; IC50 (eIF1A without NTT; [2]): 43.2 µM; gfp signal, mean of duplicate wells (NSP1): 362.5; nsp1 signal, mean of duplicate wells (NSP1): 181.5; binding to CTT-truncated eIF1A (eIF1A without CTT): compromised; fluorescence ratio, eIF1A Δ CTT (eIF1A without CTT; 1Ai conc. 0.5 uM): 1.14 and 1.091; fluorescence ratio, eIF1A Δ CTT (eIF1A without CTT; 1Ai conc. 64 uM): 1.0625 and 1.083; fluorescence ratio, eIF1A Δ CTT (eIF1A without CTT; 1Ai conc. 256 uM): 1.108 and 1.021; CTT truncation IC50 (eIF1A without CTT; eIF1A without CTT): No binding; IC50 concentration (µM), CTT truncation (eIF1A without CTT; summary table, fluorescence binding assay): No binding; IC50 (eIF1A-RPS10 interaction; [5]): 15 µM
3 | Cc1ccc(C(=O)c2cc(O)c(O)c([N+](=O)[O-])c2)cc1 [1Ai-5576] | 0.8023 and 0.892 | 0.7712 and 0.8267 | 0.7599 and 0.8722 | 0.7825 and 0.8608 | 0.6215 and 0.8636 | 0.5932 and 0.9091 | 0.5932 and 0.7358 | 0.5395 and 0.6733 | 0.7175 and 0.7159 | 0.4605 and 0.6165 | 0.4237 | 0.4237 | 0.424 | 0.7373 and 0.785 | 0.744 and 0.7009 | 0.6013 and 0.6558 | 0.5053 and 0.5218 | 0.4227 and 0.4252 | 0.332 and 0.3364 | 0.26 and 0.2352 | binding to NTT-truncated eIF1A (eIF1A without NTT): significantly decreased; gfp signal, mean of duplicate wells (NSP1): 2857; nsp1 signal, mean of duplicate wells (NSP1): 1210.5; fluorescence ratio, eIF1A Δ CTT (eIF1A without CTT; 1Ai conc. 0.5 uM): 0.8173 and 0.7741; fluorescence ratio, eIF1A Δ CTT (eIF1A without CTT; 1Ai conc. 64 uM): 0.208 and 0.1745; fluorescence ratio, eIF1A Δ CTT (eIF1A without CTT; 1Ai conc. 256 uM): 0.1973 and 0.1667; IC50 (eIF1A without CTT; [3]): 5.38 µM; IC50 (eIF1A without CTT; [4]): 5.4 µM; IC50 (eIF1A-RPS10 interaction; [5]): 24 µM
4 | CN(C)CC1CCn2cc(c3ccccc32)C2=C(C(=O)NC2=O)c2cn(c3ccccc23)CCO1 (stereo not shown) [1Ai-5662] | 0.839 and 0.8682 and 1 | 1.068 | 0.9026 and 0.9044 and 1.056 | 0.8689 and 0.9922 and 1.016 | 0.8614 and 0.9638 and 0.988 | 0.8277 and 0.845 and 0.9679 | 0.6816 and 0.8424 and 0.9197 | 0.5918 and 0.6641 and 0.7952 | 0.4307 and 0.4574 and 0.6064 | 0.2846 and 0.3101 and 0.4458 | 0.4084 | 0.4084 | 0.408 | 0.8742 and 0.9398 | 0.8798 and 0.8003 | 0.8074 and 0.8109 | 0.7089 and 0.7163 | 0.4859 and 0.6001 | 0.4269 and 0.4563 | 0.2954 and 0.3164 | fluorescence ratio, eIF1A Δ NTT (eIF1A without NTT; [6]): 0.9101 and 0.8837; IC50 (eIF1A without NTT; [1]): 37.9 µM; IC50 (eIF1A without NTT; [2]): 37.9 µM; gfp signal, mean of duplicate wells (NSP1): 442; nsp1 signal, mean of duplicate wells (NSP1): 180.5; fluorescence ratio, eIF1A Δ CTT (eIF1A without CTT; [6]): 0.8855 and 0.8821; fluorescence ratio, eIF1A Δ CTT (eIF1A without CTT; 1Ai conc. 64 uM): 0.164 and 0.1518; fluorescence ratio, eIF1A Δ CTT (eIF1A without CTT; 1Ai conc. 256 uM): 0.1171 and 0.08567; IC50 (eIF1A without CTT; [3]): 12.4 µM; IC50 (eIF1A without CTT; [4]): 12.4 µM; IC50 (eIF1A-RPS10 interaction; [5]): 25 µM
